Source: patent US9169254B2, “Spiroimidazolone derivative” (Chugai Seiyaku Kabushiki Kaisha, priority 2009, dated 2015)

Biological target: T1, human PTH1 receptor (Homo sapiens, UniProt Q03431)
T1 sequence (Q03431 27-593): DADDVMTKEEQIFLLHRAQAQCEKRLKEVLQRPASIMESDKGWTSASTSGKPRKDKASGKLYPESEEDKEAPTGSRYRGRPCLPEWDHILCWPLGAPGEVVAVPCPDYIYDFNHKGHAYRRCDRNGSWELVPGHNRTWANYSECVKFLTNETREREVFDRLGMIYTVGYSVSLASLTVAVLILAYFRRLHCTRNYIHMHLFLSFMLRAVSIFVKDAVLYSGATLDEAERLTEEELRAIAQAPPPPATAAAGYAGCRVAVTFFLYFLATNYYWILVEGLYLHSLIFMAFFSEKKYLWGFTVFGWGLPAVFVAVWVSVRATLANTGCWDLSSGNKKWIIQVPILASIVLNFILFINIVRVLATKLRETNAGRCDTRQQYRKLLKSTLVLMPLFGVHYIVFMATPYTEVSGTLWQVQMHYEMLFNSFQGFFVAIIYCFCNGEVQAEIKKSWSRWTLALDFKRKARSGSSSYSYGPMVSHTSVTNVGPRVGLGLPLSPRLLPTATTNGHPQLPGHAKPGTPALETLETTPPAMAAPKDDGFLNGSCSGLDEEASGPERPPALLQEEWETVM
Experiment: In vitro cAMP signal activity in HKRK-B7 cells (LLC-PK1 cells overexpressing the human PTH1 receptor)
Assay type: cell-based
Conditions: HKRK-B7 cells; compound at 1×10^−3 M; cAMP produced as percentage of that produced by hPTH(1-34) at 100 nM

cAMP production activity (%)	SMILES
85%	Cc1cc(C(=O)N(C)C)ccc1CCS(=O)(=O)N1CCC2(CC1)N=C(C1CCC(CCCC(F)(F)F)CC1)NC2=O (centres unmarked) [Compound 897, 3,N,N-trimethyl-4-(2-{4-oxo-2-[4-(4,4,4-trifluoro-butyl)-cyclohexyl]-1,3,8-triaza-spiro[4.5]dec-1-ene-8-sulfonyl}-ethyl)-benzamide]
4.3%	Cc1cc(C(=O)N(C)C)ccc1CCS(=O)(=O)N1CCC2(CC1)N=C(c1cccc(OC(F)(F)F)c1)N=C2NCC1CCCCC1 [Compound 898, 4-{2-[4-(cyclohexylmethyl-amino)-2-(3-trifluoromethoxy-phenyl)-1,3,8-triaza-spiro[4.5]deca-1,3-diene-8-sulfonyl]-ethyl}-3,N,N-trimethyl-benzamide]
12%	Cc1cc(C(=O)N(C)C)ccc1CCS(=O)(=O)N1CCC2(CC1)N=C(c1cccc(OC(F)(F)F)c1)N=C2N(C)C [Compound 899, 4-{2-[4-dimethylamino-2-(3-trifluoromethoxy-phenyl)-1,3,8-triaza-spiro[4.5]deca-1,3-diene-8-sulfonyl]-ethyl}-3,N,N-trimethyl-benzamide]
90%	Cc1cc(C(=O)N(C)C)ccc1CCS(=O)(=O)N1CCC2(CC1)N=C(c1cccc(OC(F)(F)F)c1)N/C2=N\O [Compound 900, 4-{2-[4-[(Z)-hydroxyimino]-2-(3-trifluoromethoxy-phenyl)-1,3,8-triaza-spiro[4.5]dec-1-ene-8-sulfonyl]-ethyl}-3,N,N-trimethyl-benzamide]
1.9%	CO/N=C1\NC(c2cccc(OC(F)(F)F)c2)=NC12CCN(S(=O)(=O)CCc1ccc(C(=O)N(C)C)cc1C)CC2 [Compound 901, 4-{2-[4-[(Z)-methoxyimino]-2-(3-trifluoromethoxy-phenyl)-1,3,8-triaza-spiro[4.5]dec-1-ene-8-sulfonyl]-ethyl}-3,N,N-trimethyl-benzamide]
67%	COCCC1CCC(C2=NC3(CCN(S(=O)(=O)CCc4ccc(C(=O)N(C)C)cc4C)CC3)C(=O)N2)CC1 (centres unmarked) [Compound 902, 4-(2-{2-[4-(2-Methoxy-ethyl)-cyclohexyl]-4-oxo-1,3,8-triaza-spiro[4.5]dec-1-ene-8-sulfonyl}-ethyl)-3,N,N-trimethyl-benzamide]
56%	CC(=O)Nc1ccc(CCS(=O)(=O)N2CCC3(CC2)N=C(C2CCCC2)NC3=O)c(C)c1 [Compound 903, N-{4-[2-(2-Cyclopentyl-4-oxo-1,3,8-triaza-spiro[4.5]dec-1-ene-8-sulfonyl)-ethyl]-3-methyl-phenyl}-acetamide]
69%	CC(=O)Nc1ccc(CCS(=O)(=O)N2CCC3(CC2)N=C(C2CCC(C(F)(F)F)CC2)NC3=O)c(C)c1 (centres unmarked) [Compound 904, N-(3-methyl-4-{2-[4-oxo-2-(4-trifluoromethyl-cyclohexyl)-1,3,8-triaza-spiro[4.5]dec-1-ene-8-sulfonyl]-ethyl}-phenyl)-acetamide]
75%	CCCCC1CCC(C2=NC3(CCN(S(=O)(=O)CCc4ccc(NC(C)=O)cc4C)CC3)C(=O)N2)CC1 (centres unmarked) [Compound 905, N-(4-{2-[2-(4-butyl-cyclohexyl)-4-oxo-1,3,8-triaza-spiro[4.5]dec-1-ene-8-sulfonyl]-ethyl}-3-methyl-phenyl)-acetamide]
78%	CC(=O)Nc1ccc(CCS(=O)(=O)N2CCC3(CC2)N=C(c2ccc(C#N)cc2)NC3=O)c(C)c1 [Compound 906, N-(4-{2-[2-(4-cyano-phenyl)-4-oxo-1,3,8-triaza-spiro[4.5]dec-1-ene-8-sulfonyl]-ethyl}-3-methyl-phenyl)-acetamide]
85%	CC(=O)Nc1ccc(CCS(=O)(=O)N2CCC3(CC2)N=C(c2cccc(C#N)c2)NC3=O)c(C)c1 [Compound 907, N-(4-{2-[2-(3-cyano-phenyl)-4-oxo-1,3,8-triaza-spiro[4.5]dec-1-ene-8-sulfonyl]-ethyl}-3-methyl-phenyl)-acetamide]
74%	CC(=O)Nc1ccc(CCS(=O)(=O)N2CCC3(CC2)N=C(c2ccccc2C#N)NC3=O)c(C)c1 [Compound 908, N-(4-{2-[2-(2-cyano-phenyl)-4-oxo-1,3,8-triaza-spiro[4.5]dec-1-ene-8-sulfonyl]-ethyl}-3-methyl-phenyl)-acetamide]
78%	CC(=O)Nc1ccc(CCS(=O)(=O)N2CCC3(CC2)N=C(C2CCC(C(C)(C)C)CC2)NC3=O)c(C)c1 (centres unmarked) [Compound 909, N-(4-{2-[2-(4-tert-butyl-cyclohexyl)-4-oxo-1,3,8-triaza-spiro[4.5]dec-1-ene-8-sulfonyl]-ethyl}-3-methyl-phenyl)-acetamide]
64%	CCOCC1CCC(C2=NC3(CCN(S(=O)(=O)CCc4ccc(NC(C)=O)cc4C)CC3)C(=O)N2)CC1 (centres unmarked) [Compound 910, N-(4-{2-[2-(4-ethoxymethyl-cyclohexyl)-4-oxo-1,3,8-triaza-spiro[4.5]dec-1-ene-8-sulfonyl]-ethyl}-3-methyl-phenyl)-acetamide]
71%	CCCOC1CCC(C2=NC3(CCN(S(=O)(=O)CCc4ccc(NC(C)=O)cc4C)CC3)C(=O)N2)CC1 (centres unmarked) [Compound 911, N-(3-methyl-4-{2-[4-oxo-2-(4-propoxy-cyclohexyl)-1,3,8-triaza-spiro[4.5]dec-1-ene-8-sulfonyl]-ethyl}-phenyl)-acetamide]
81%	CC(=O)Nc1ccc(CCS(=O)(=O)N2CCC3(CC2)N=C(C2CCC(COC(C)C)CC2)NC3=O)c(C)c1 (centres unmarked) [Compound 913, N-(4-{2-[2-(4-isopropoxymethyl-cyclohexyl)-4-oxo-1,3,8-triaza-spiro[4.5]dec-1-ene-8-sulfonyl]-ethyl}-3-methyl-phenyl)-acetamide]
68%	CC(=O)Nc1ccc(CCS(=O)(=O)N2CCC3(CC2)N=C([C@H]2CC[C@@H](OCCCF)CC2)NC3=O)c(C)c1 [Compound 914, N-[4-(2-{2-[4-(3-fluoro-propoxy)-cyclohexyl]-4-oxo-1,3,8-triaza-spiro[4.5]dec-1-ene-8-sulfonyl}-ethyl)-3-methyl-phenyl]-acetamide]
61%	CC(=O)Nc1ccc(CCS(=O)(=O)N2CCC3(CC2)N=C([C@H]2CC[C@H](OCCCF)CC2)NC3=O)c(C)c1 [Compound 915, N-[4-(2-{2-[4-(3-fluoro-propoxy)-cyclohexyl]-4-oxo-1,3,8-triaza-spiro[4.5]dec-1-ene-8-sulfonyl}-ethyl)-3-methyl-phenyl]-acetamide]
59%	CC(=O)Nc1ccc(CCS(=O)(=O)N2CCC3(CC2)N=C([C@H]2CC[C@H](/C=C/C(F)F)CC2)NC3=O)c(C)c1 [Compound 916, N-[4-(2-{2-[4-((E)-3,3-difluoro-propenyl)-cyclohexyl]-4-oxo-1,3,8-triaza-spiro[4.5]dec-1-ene-8-sulfonyl}-ethyl)-3-methyl-phenyl]-acetamide]
69%	CC(=O)Nc1ccc(CCS(=O)(=O)N2CCC3(CC2)N=C(C2CCCCCC2)NC3=O)c(C)c1 [Compound 917, N-{4-[2-(2-Cycloheptyl-4-oxo-1,3,8-triaza-spiro[4.5]dec-1-ene-8-sulfonyl)-ethyl]-3-methyl-phenyl}-acetamide]
63%	CC(=O)Nc1ccc(CCS(=O)(=O)N2CCC3(CC2)N=C(C24CC5CC(CC(C5)C2)C4)NC3=O)c(C)c1 [Compound 918, N-{4-[2-(2-adamantan-1-yl-4-oxo-1,3,8-triaza-spiro[4.5]dec-1-ene-8-sulfonyl)-ethyl]-3-methyl-phenyl}-acetamide]
68%	CC(=O)Nc1ccc(CCS(=O)(=O)N2CCC3(CC2)N=C(C2CCC(COCC(F)(F)F)CC2)NC3=O)c(C)c1 (centres unmarked) [Compound 919, N-[3-methyl-4-(2-{4-oxo-2-[4-(2,2,2-trifluoro-ethoxymethyl)-cyclohexyl]-1,3,8-triaza-spiro[4.5]dec-1-ene-8-sulfonyl}-ethyl)-phenyl]-acetamide]
70%	CC(=O)Nc1ccc(CCS(=O)(=O)N2CCC3(CC2)N=C(C2CCC(c4ccc(Cl)cc4)CC2)NC3=O)c(C)c1 (centres unmarked) [Compound 920, N-[4-(2-{2-[4-(4-Chloro-phenyl)-cyclohexyl]-4-oxo-1,3,8-triaza-spiro[4.5]dec-1-ene-8-sulfonyl}-ethyl)-3-methyl-phenyl]-acetamide]
59%	CC(=O)Nc1ccc(CCS(=O)(=O)N2CCC3(CC2)N=C(C2CCC(OCCC(F)(F)F)CC2)NC3=O)c(C)c1 (centres unmarked) [Compound 921, N-[3-methyl-4-(2-{4-oxo-2-[4-(3,3,3-trifluoro-propoxy)-cyclohexyl]-1,3,8-triaza-spiro[4.5]dec-1-ene-8-sulfonyl}-ethyl)-phenyl]-acetamide]
84%	CC(=O)Nc1ccc(CCS(=O)(=O)N2CCC3(CC2)N=C([C@H]2CC[C@H](CC(F)(F)F)CC2)NC3=O)c(C)c1 [Compound 922, N-[3-methyl-4-(2-{4-oxo-2-[4-(2,2,2-trifluoro-ethyl)-cyclohexyl]-1,3,8-triaza-spiro[4.5]dec-1-ene-8-sulfonyl}-ethyl)-phenyl]-acetamide]

SMILES	cAMP production activity (%)
CCCCOC1CCC(C2=NC3(CCN(S(=O)(=O)CCc4ccc(NC(C)=O)cc4C)CC3)C(=O)N2)CC1 (centres unmarked) [Compound 912, N-(4-{2-[2-(4-butoxy-cyclohexyl)-4-oxo-1,3,8-triaza-spiro[4.5]dec-1-ene-8-sulfonyl]-ethyl}-3-methyl-phenyl)-acetamide]	98%
